Assay results taken from patent publication US20050049242A1 (priority 2000, published 2005).
pEC50, pIC50: −log10 of the molar value. Read-outs that look alike come from different tables or passages of the source.

Assays:
[1] = molecular target: HIV-1 IN (Human immunodeficiency virus type 1 group M subtype B, UniProt P12497); conditions: read-out: IC50 (IN dependent disintegration); purified HIV IN, MnCl2
[2] = system: HIVLAI; assay: Anti-HIV assay, protection from HIV-induced cell death; format: cell-based; conditions: read-out: ED50 (concentration that inhibits HIV-induced cell death by 50%); HIVLAI, MT-2 cells, 72 hr
Description: Anti-HIV assays were performed as described above. […] The compounds were then two-fold serially diluted in triplicate. To each 50 μl of diluted compound, 50 μl of HIVLAI was added and the virus-drug mixture was incubated for 1 hr at 37° C. […] Final multiplicity of infection (MOI) was 1-5. Cells were harvested to quantitate cytopathic effect using a neutral red dye assay as described.

[3] = system: HIV-1NL4-3; assay: Anti-HIV cytopathicity assay against parental molecular clone; format: cell-based
Description: (§1) Cloning and sequencing of virus from the HIVNL4-3 passaged in the presence of 8 μM L-chicoric acid was undertaken to determine the molecular basis for resistance to L-chicoric acid and to isolate a resistant HIV clone.
Assays, as described above, to determine the ED50 for a given compound against the molecular clone HIVNL4-3clone1-D4 and the parental clone HIVNL4-3 give an indication of the selectivity of the compound for inhibition of HIV replication through IN. Resistance to a compound, as measured by an increased ED50, by clone HIVNL4-3clone1-D4, implies selectivity of the compound for IN. Thus clone HIVNL4-3clone1-D4 can be used to screen candidate IN inhibitors for selectivity.

[4] = system: HIV-1NL4-3clone1-D4; format: cell-based; conditions: for efficacy against the L-chicoric acid resistant clone: compared with parental HIVNL4-3
Description: as §1
This cloning was accomplished through site-directed mutagenesis introducing several silent mutations immediately upstream and downstream of the integrase gene. These mutations generated two unique restriction sites: an upstream SacII and a downstream XbaI (FIG. 15). Introduction of these mutations allowed the entire integrase gene with only minimal upstream and downstream nucleotides to be digested and “swapped” between drug-resistant and drug-sensitive clones.

[5] = system: HIVNL4-3 passaged in the presence of 8 μM L-chicoric acid; assay: Cytopathicity assay against virus passaged in 8 μM L-chicoric acid; format: cell-based, HIV; conditions: FIG. 14
Description: HIVNL4-3 plasmid (a gift from Dr. P. Krogstad, UCLA, Los Angeles, Calif.), was transfected in HeLa cells using Lipofectin® (Gibco/BRL). Excess DNA was removed by washing and cells were co-cultured with H9 cells for 18 hours. The H9 cells were removed and re-cultured in growth medium. When the culture was 100% positive for HIV antigens by indirect immunofluorescence, the virus was inoculated onto H9 cells and incubated at 37° C. for several weeks in the presence of 2 μM L-chicoric acid. When this culture was 100% positive the virus was isolated and one aliquot was passaged in a similar manner in 4 μM L-chicoric acid. Finally, virus was cultured in the presence of 8 μM L-chicoric acid and the resultant virus filter-clarified, aliquoted, and stored at −70° C.
as §1

Substance	pIC50 [1]	pEC50 [2]	pEC50 ([3]; control virus passaged without inhibitor, FIG. 14, read-out: ED50 against HIVNL4-3 control virus)	pEC50 ([3]; mean of triplicate infections, read-out: ED50 HIVNL4-3)	efficacy against the L-chicoric acid resistant clone [4]	efficacy against the L-chicoric acid resistant clone ([4]; listed as L-chicoric acid)	pEC50 ([4]; mean of triplicate infections, read-out: ED50 HIVNL4-3clone1-D4)	resistance of passaged virus to the compound [5]
Di-3,4-dihydrodihydroxybenzylidine succinic acid [Compound 38]	6.07	5.36						
Dicaffeoyl-L-tartaric acid [Compound 1]			6.40	6.11	reduced efficacy	resistant	4.21	completely resistant
